In ChEMBL document CHEMBL4396971, “Discovery of potent and orally bioavailable indazole-based glucagon receptor antagonists for the treatment of type 2 diabetes” (Bioorg Med Chem Lett, 2019):

System: not listed separately
Assay: Stability in human liver microsomes assessed as parent compound remaining at 1 uM incubated for 10 mins
Format: ADME, Microsome
Details: read-out: Stability

remaining at 10 min, 1 µM	SMILES
57%	Cc1cc(C(F)(F)F)ccc1-c1cc2cn([C@@H](CC(C)C)c3ccc(C(=O)NCCC(=O)O)cc3)nc2cc1C
59%	CC(C)C[C@@H](c1ccc(C(=O)NCCC(=O)O)cc1)n1ncc2cc(-c3ccc(C(F)(F)F)cc3Cl)ccc21

System: not listed separately
Assay: Stability in mouse liver microsomes assessed as parent compound remaining at 1 uM incubated for 10 mins
Format: ADME, Microsome
Details: liver microsomes, read-out: Stability

remaining at 10 min, 1 µM	SMILES
79%	Cc1cc(C(F)(F)F)ccc1-c1cc2cn([C@@H](CC(C)C)c3ccc(C(=O)NCCC(=O)O)cc3)nc2cc1C
107%	CC(C)C[C@@H](c1ccc(C(=O)NCCC(=O)O)cc1)n1ncc2cc(-c3ccc(C(F)(F)F)cc3Cl)ccc21

System: not listed separately
Assay: Stability in rat liver microsomes assessed as parent compound remaining at 1 uM incubated for 10 mins
Format: ADME, Microsome
Details: read-out: Stability

remaining at 10 min, 1 µM	SMILES
113%	Cc1cc(C(F)(F)F)ccc1-c1cc2cn([C@@H](CC(C)C)c3ccc(C(=O)NCCC(=O)O)cc3)nc2cc1C
81%	CC(C)C[C@@H](c1ccc(C(=O)NCCC(=O)O)cc1)n1ncc2cc(-c3ccc(C(F)(F)F)cc3Cl)ccc21

System: not listed separately
Assay: Stability in dog liver microsomes assessed as parent compound remaining at 1 uM incubated for 10 mins
Format: ADME, Canis lupus familiaris, Microsome
Details: liver microsomes, read-out: Stability

remaining at 10 min, 1 µM	SMILES
68%	Cc1cc(C(F)(F)F)ccc1-c1cc2cn([C@@H](CC(C)C)c3ccc(C(=O)NCCC(=O)O)cc3)nc2cc1C

Same assay, conditions: microsomes, 10 min, 1 µM

Stability	SMILES
121%	CC(C)C[C@@H](c1ccc(C(=O)NCCC(=O)O)cc1)n1ncc2cc(-c3ccc(C(F)(F)F)cc3Cl)ccc21

Molecular target: Glucagon receptor (Homo sapiens, UniProt P47871)
Assay: Potency index, ratio of Ki of 3-[[4-[(1R)-1-[5-[2-Chloro4-(trifluoromethyl)phenyl]indazol-1-yl]-3-methyl-butyl]benzoyl]amino]propanoic acid to Ki of compound for human full length GCGR transfected in HEK293 cells assessed as reduction in glucagon-induced cAMP response by LANCE TR-FRET assay
Format: functional, cell-based
Details: not given

Sequence of Glucagon receptor (P47871 whole entry): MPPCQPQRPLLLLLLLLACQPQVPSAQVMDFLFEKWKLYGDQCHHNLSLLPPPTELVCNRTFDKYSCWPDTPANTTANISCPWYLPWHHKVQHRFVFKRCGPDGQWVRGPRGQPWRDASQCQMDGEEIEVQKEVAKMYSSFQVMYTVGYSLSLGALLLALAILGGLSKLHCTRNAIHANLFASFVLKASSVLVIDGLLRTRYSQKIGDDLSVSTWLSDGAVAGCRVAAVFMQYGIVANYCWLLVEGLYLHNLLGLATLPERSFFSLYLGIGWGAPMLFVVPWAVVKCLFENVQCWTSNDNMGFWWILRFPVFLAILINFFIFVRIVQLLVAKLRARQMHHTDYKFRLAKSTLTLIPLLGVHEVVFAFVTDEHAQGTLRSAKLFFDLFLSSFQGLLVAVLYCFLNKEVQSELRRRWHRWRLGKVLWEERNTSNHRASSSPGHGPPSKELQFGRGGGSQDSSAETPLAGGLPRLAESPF

Ratio Ki	SMILES
15	CC(C)C[C@@H](c1ccc(C(=O)NCCC(=O)O)cc1)n1ncc2cc(-c3ccc(C(F)(F)F)cc3Cl)ccc21

System: not listed separately
Assay: Clearance in C57 mouse at 5 mg/kg, iv or 20 mg/kg, po
Format: ADME, organism-based
Details: in vivo

clearance	SMILES
4.78 mL/min/kg	Cc1cc(C(F)(F)F)ccc1-c1cc2cn([C@@H](CC(C)C)c3ccc(C(=O)NCCC(=O)O)cc3)nc2cc1C

System: not listed separately
Assay: Clearance in Sprague-Dawley rat at 2 mg/kg, iv or 10 mg/kg, po
Format: ADME, organism-based
Details: in vivo

clearance	SMILES
12.7 mL/min/kg	Cc1cc(C(F)(F)F)ccc1-c1cc2cn([C@@H](CC(C)C)c3ccc(C(=O)NCCC(=O)O)cc3)nc2cc1C

System: not listed separately
Assay: Clearance in dog at 2 mg/kg, iv or 10 mg/kg, po
Format: ADME, organism-based, Canis lupus familiaris
Details: in vivo

clearance	SMILES
0.19 mL/min/kg	Cc1cc(C(F)(F)F)ccc1-c1cc2cn([C@@H](CC(C)C)c3ccc(C(=O)NCCC(=O)O)cc3)nc2cc1C

System: not listed separately
Assay: Volume of distribution at steady state in C57 mouse at 5 mg/kg, iv or 20 mg/kg, po
Format: ADME, organism-based
Details: in vivo, read-out: Vdss

Vd	SMILES
1.56 L/kg	Cc1cc(C(F)(F)F)ccc1-c1cc2cn([C@@H](CC(C)C)c3ccc(C(=O)NCCC(=O)O)cc3)nc2cc1C

System: not listed separately
Assay: Volume of distribution at steady state in Sprague-Dawley rat at 2 mg/kg, iv or 10 mg/kg, po
Format: ADME, organism-based
Details: in vivo, read-out: Vdss

Vd	SMILES
2.94 L/kg	Cc1cc(C(F)(F)F)ccc1-c1cc2cn([C@@H](CC(C)C)c3ccc(C(=O)NCCC(=O)O)cc3)nc2cc1C

System: not listed separately
Assay: Volume of distribution at steady state in dog at 2 mg/kg, iv or 10 mg/kg, po
Format: ADME, organism-based, Canis lupus familiaris
Details: in vivo, read-out: Vdss

Vd	SMILES
0.26 L/kg	Cc1cc(C(F)(F)F)ccc1-c1cc2cn([C@@H](CC(C)C)c3ccc(C(=O)NCCC(=O)O)cc3)nc2cc1C

System: not listed separately
Assay: Half life in C57 mouse at 5 mg/kg, iv
Format: ADME, organism-based
Details: in vivo

half-life	SMILES
4.5 h	Cc1cc(C(F)(F)F)ccc1-c1cc2cn([C@@H](CC(C)C)c3ccc(C(=O)NCCC(=O)O)cc3)nc2cc1C

System: not listed separately
Assay: Half life in Sprague-Dawley rat at 2 mg/kg, iv
Format: ADME, organism-based
Details: in vivo

half-life	SMILES
3.7 h	Cc1cc(C(F)(F)F)ccc1-c1cc2cn([C@@H](CC(C)C)c3ccc(C(=O)NCCC(=O)O)cc3)nc2cc1C

System: not listed separately
Assay: Half life in dog at 2 mg/kg, iv
Format: ADME, organism-based, Canis lupus familiaris
Details: in vivo

half-life	SMILES
21.7 h	Cc1cc(C(F)(F)F)ccc1-c1cc2cn([C@@H](CC(C)C)c3ccc(C(=O)NCCC(=O)O)cc3)nc2cc1C

System: not listed separately
Assay: Half life in C57 mouse at 20 mg/kg, po
Format: ADME, organism-based
Details: in vivo

half-life	SMILES
5 h	Cc1cc(C(F)(F)F)ccc1-c1cc2cn([C@@H](CC(C)C)c3ccc(C(=O)NCCC(=O)O)cc3)nc2cc1C

System: not listed separately
Assay: Half life in Sprague-Dawley rat at 10 mg/kg, po
Format: ADME, organism-based
Details: in vivo

half-life	SMILES
4.3 h	Cc1cc(C(F)(F)F)ccc1-c1cc2cn([C@@H](CC(C)C)c3ccc(C(=O)NCCC(=O)O)cc3)nc2cc1C

System: not listed separately
Assay: Half life in dog at 10 mg/kg, po
Format: ADME, organism-based, Canis lupus familiaris
Details: in vivo

half-life	SMILES
20.2 h	Cc1cc(C(F)(F)F)ccc1-c1cc2cn([C@@H](CC(C)C)c3ccc(C(=O)NCCC(=O)O)cc3)nc2cc1C

System: not listed separately
Assay: AUClast in C57 mouse at 5 mg/kg, iv or 20 mg/kg, po
Format: ADME, organism-based
Details: in vivo

AUC(0-t)	SMILES
90.1 µM·h	Cc1cc(C(F)(F)F)ccc1-c1cc2cn([C@@H](CC(C)C)c3ccc(C(=O)NCCC(=O)O)cc3)nc2cc1C

System: not listed separately
Assay: AUClast in Sprague-Dawley rat at 2 mg/kg, iv or 10 mg/kg, po
Format: ADME, organism-based
Details: in vivo

AUC(0-t)	SMILES
9.2 µM·h	Cc1cc(C(F)(F)F)ccc1-c1cc2cn([C@@H](CC(C)C)c3ccc(C(=O)NCCC(=O)O)cc3)nc2cc1C

System: not listed separately
Assay: AUClast in dog at 2 mg/kg, iv or 10 mg/kg, po
Format: ADME, organism-based, Canis lupus familiaris
Details: in vivo

AUC(0-t)	SMILES
468 µM·h	Cc1cc(C(F)(F)F)ccc1-c1cc2cn([C@@H](CC(C)C)c3ccc(C(=O)NCCC(=O)O)cc3)nc2cc1C

System: not listed separately
Assay: Cmax in C57 mouse at 5 mg/kg, iv or 20 mg/kg, po
Format: ADME, organism-based
Details: in vivo

Cmax	SMILES
7.9 µM	Cc1cc(C(F)(F)F)ccc1-c1cc2cn([C@@H](CC(C)C)c3ccc(C(=O)NCCC(=O)O)cc3)nc2cc1C

System: not listed separately
Assay: Cmax in Sprague-Dawley rat at 2 mg/kg, iv or 10 mg/kg, po
Format: ADME, organism-based
Details: in vivo

Cmax	SMILES
1.1 µM	Cc1cc(C(F)(F)F)ccc1-c1cc2cn([C@@H](CC(C)C)c3ccc(C(=O)NCCC(=O)O)cc3)nc2cc1C

System: not listed separately
Assay: Cmax in dog at 2 mg/kg, iv or 10 mg/kg, po
Format: ADME, organism-based, Canis lupus familiaris
Details: in vivo

Cmax	SMILES
35 µM	Cc1cc(C(F)(F)F)ccc1-c1cc2cn([C@@H](CC(C)C)c3ccc(C(=O)NCCC(=O)O)cc3)nc2cc1C

System: not listed separately
Assay: Oral bioavailability in C57 mouse at 20 mg/kg
Format: ADME, organism-based
Details: in vivo

bioavailability	SMILES
74.4%	Cc1cc(C(F)(F)F)ccc1-c1cc2cn([C@@H](CC(C)C)c3ccc(C(=O)NCCC(=O)O)cc3)nc2cc1C

System: not listed separately
Assay: Oral bioavailability in Sprague-Dawley rat at 10 mg/kg
Format: ADME, organism-based
Details: in vivo

bioavailability	SMILES
32.3%	Cc1cc(C(F)(F)F)ccc1-c1cc2cn([C@@H](CC(C)C)c3ccc(C(=O)NCCC(=O)O)cc3)nc2cc1C

System: not listed separately
Assay: Oral bioavailability in dog at 10 mg/kg
Format: ADME, organism-based, Canis lupus familiaris
Details: in vivo

bioavailability	SMILES
45%	Cc1cc(C(F)(F)F)ccc1-c1cc2cn([C@@H](CC(C)C)c3ccc(C(=O)NCCC(=O)O)cc3)nc2cc1C

System: not listed separately
Assay: Protein binding in human plasma at 1 uM
Format: ADME, cell-free
Details: read-out: PPB

fraction unbound at 1 µM	SMILES
0.0001	Cc1cc(C(F)(F)F)ccc1-c1cc2cn([C@@H](CC(C)C)c3ccc(C(=O)NCCC(=O)O)cc3)nc2cc1C

Molecular target: T1, Cytochrome P450 3A4 (Homo sapiens, UniProt P08684)
Assay: Inhibition of CYP3A4 (unknown origin) using testosterone as substrate
Format: ADME
Details: not given

T1 sequence (P08684 whole entry): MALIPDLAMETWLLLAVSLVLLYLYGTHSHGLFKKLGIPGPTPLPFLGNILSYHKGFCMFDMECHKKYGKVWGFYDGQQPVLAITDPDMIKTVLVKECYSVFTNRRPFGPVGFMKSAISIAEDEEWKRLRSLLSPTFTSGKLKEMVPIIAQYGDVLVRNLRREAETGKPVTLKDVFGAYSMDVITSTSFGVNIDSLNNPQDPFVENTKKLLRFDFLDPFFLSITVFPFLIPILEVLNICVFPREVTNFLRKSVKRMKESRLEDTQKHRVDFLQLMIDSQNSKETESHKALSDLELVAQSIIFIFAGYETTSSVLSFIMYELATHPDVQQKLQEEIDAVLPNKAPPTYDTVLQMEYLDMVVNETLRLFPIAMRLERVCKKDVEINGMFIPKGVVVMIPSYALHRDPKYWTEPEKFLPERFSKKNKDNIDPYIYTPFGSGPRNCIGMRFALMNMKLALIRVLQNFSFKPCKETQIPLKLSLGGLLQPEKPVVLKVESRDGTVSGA

IC50	SMILES
> 10 µM	Cc1cc(C(F)(F)F)ccc1-c1cc2cn([C@@H](CC(C)C)c3ccc(C(=O)NCCC(=O)O)cc3)nc2cc1C

Molecular target: T1, Cytochrome P450 3A4
Assay: Inhibition of CYP3A4 (unknown origin) using midazolam as substrate
Format: ADME
Details: not given

IC50	SMILES
> 10 µM	Cc1cc(C(F)(F)F)ccc1-c1cc2cn([C@@H](CC(C)C)c3ccc(C(=O)NCCC(=O)O)cc3)nc2cc1C

Molecular target: Cytochrome P450 2C19 (Homo sapiens, UniProt P33261)
Assay: Inhibition of CYP2C19 (unknown origin) using S-Mephenytoin as substrate
Format: ADME
Details: not given

Sequence of Cytochrome P450 2C19 (P33261 whole entry): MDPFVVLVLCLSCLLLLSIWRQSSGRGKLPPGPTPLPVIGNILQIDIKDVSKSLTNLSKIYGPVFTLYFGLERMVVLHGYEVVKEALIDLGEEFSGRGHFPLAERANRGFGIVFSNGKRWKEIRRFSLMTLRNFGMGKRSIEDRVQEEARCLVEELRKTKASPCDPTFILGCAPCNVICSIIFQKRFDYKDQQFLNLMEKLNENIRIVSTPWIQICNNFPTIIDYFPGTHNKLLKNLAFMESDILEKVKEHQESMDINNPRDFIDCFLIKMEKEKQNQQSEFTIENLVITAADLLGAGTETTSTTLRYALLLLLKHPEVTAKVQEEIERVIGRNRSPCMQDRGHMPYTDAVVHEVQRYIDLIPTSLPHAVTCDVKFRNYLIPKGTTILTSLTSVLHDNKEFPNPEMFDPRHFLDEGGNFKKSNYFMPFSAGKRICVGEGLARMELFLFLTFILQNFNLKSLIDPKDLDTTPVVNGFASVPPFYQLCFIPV

IC50	SMILES
> 10 µM	Cc1cc(C(F)(F)F)ccc1-c1cc2cn([C@@H](CC(C)C)c3ccc(C(=O)NCCC(=O)O)cc3)nc2cc1C

Molecular target: Cytochrome P450 2C9 (Homo sapiens, UniProt P11712)
Assay: Inhibition of CYP2C9 (unknown origin) using tolbutamide as substrate
Format: ADME
Details: not given

Sequence of Cytochrome P450 2C9 (P11712 whole entry): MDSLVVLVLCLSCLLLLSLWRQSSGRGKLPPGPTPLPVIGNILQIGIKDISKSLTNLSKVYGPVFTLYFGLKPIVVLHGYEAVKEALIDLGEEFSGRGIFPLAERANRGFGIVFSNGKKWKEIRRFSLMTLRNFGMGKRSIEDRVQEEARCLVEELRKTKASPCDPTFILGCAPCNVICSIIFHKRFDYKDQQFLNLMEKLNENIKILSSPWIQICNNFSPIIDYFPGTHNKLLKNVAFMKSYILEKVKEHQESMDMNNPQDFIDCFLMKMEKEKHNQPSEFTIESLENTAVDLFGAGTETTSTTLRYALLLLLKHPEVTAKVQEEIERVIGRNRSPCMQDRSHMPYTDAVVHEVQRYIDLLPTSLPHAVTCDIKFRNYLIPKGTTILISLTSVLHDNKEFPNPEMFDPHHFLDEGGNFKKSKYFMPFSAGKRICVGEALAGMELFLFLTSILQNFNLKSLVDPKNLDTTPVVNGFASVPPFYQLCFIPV

IC50	SMILES
> 10 µM	Cc1cc(C(F)(F)F)ccc1-c1cc2cn([C@@H](CC(C)C)c3ccc(C(=O)NCCC(=O)O)cc3)nc2cc1C

Molecular target: T2, Cytochrome P450 1A2 (Homo sapiens, UniProt P05177)
T2 sequence (P05177 whole entry): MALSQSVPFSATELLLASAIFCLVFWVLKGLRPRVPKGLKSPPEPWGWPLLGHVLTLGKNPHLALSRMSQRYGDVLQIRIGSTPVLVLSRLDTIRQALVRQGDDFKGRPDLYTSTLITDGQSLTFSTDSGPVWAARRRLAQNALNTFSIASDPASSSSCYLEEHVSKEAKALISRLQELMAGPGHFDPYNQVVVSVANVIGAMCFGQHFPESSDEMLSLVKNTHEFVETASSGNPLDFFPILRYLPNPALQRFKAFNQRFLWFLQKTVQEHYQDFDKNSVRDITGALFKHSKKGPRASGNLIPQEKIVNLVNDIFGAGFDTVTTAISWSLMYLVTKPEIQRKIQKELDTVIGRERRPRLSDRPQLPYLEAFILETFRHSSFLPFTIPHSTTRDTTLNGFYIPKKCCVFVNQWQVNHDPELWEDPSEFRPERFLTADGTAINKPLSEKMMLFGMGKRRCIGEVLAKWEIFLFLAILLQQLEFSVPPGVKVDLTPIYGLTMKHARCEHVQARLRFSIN
Assay: Inhibition of CYP1A2 (unknown origin) using phenacetin as substrate
Format: ADME
Details: not given

IC50	SMILES
> 10 µM	Cc1cc(C(F)(F)F)ccc1-c1cc2cn([C@@H](CC(C)C)c3ccc(C(=O)NCCC(=O)O)cc3)nc2cc1C

Molecular target: Cytochrome P450 2D6 (Homo sapiens, UniProt P10635)
Assay: Inhibition of CYP2D6 (unknown origin) using dextromethorphan as substrate
Format: ADME
Details: not given

Sequence of Cytochrome P450 2D6 (P10635 whole entry): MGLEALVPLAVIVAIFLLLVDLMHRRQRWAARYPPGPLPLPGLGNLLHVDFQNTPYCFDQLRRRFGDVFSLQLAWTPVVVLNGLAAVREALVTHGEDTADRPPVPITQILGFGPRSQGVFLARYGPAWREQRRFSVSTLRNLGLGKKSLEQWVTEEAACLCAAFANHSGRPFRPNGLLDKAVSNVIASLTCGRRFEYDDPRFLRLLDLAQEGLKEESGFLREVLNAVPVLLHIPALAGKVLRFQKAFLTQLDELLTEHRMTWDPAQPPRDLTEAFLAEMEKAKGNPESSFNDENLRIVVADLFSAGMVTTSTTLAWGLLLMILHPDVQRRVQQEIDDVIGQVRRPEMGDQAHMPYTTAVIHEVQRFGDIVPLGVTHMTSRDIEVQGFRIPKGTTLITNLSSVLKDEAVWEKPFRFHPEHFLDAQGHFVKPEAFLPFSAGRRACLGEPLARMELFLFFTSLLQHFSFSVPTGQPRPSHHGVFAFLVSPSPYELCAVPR

IC50	SMILES
> 10 µM	Cc1cc(C(F)(F)F)ccc1-c1cc2cn([C@@H](CC(C)C)c3ccc(C(=O)NCCC(=O)O)cc3)nc2cc1C

Molecular target: not listed separately
Assay: Antagonist activity at GCGR in dog hepatocytes assessed as inhibition of glucagon-induced cAMP by LANCE TR-FRET assay
Format: cell-based, Canis lupus familiaris
Details: not given

Ki	SMILES
0.65 µM	Cc1cc(C(F)(F)F)ccc1-c1cc2cn([C@@H](CC(C)C)c3ccc(C(=O)NCCC(=O)O)cc3)nc2cc1C
